Experimental data taken from article PMC9249674, “A small-molecule Skp1 inhibitor elicits cell death by p53-dependent mechanism” (iScience, 2022).

What was measured:
[1] = biological target: T1, Skp1 (V123D) (Homo sapiens, UniProt P63208, V123D); test: SPRi assay, Skp1 mutant; format: binding
T1 construct: His6; made in house; host or cells: Escherichia coli BL21 (DE3)
Protocol: (§1) Freshly deposited gold coated standard SPRi chips/slides (Plexera, LLC) were cleaned, and compound(s) at 10 mM concentration in 100% DMSO were spotted on the chips using a micropipette. After this, the slides were left for complete evaporation of DMSO (under vacuum) at room temperature for 2 hrs. After printing, the slides were exposed to UV irradiation 2.4 J/cm^2 (365 nm) in a UV chamber (Amersham life science). The slides were subsequently washed with DMSO, ethanol, and finally with distilled water for 15 minutes (ultrasonically), respectively, to remove non-covalently bound compounds. After drying with nitrogen, the slides were assembled with flow cell and then mounted on SPRi instrument for measurement, or stored at 4°C to be used for later experiments.
(§2) All the experiments were carried out using the PlexArray® HT system (Plexera, LLC), which is based on surface plasmon resonance imaging. Oval regions of interests (ROIs) were set as 9 pixels × 7 pixels area in imaging area. ROIs of vehicle (DMSO) were used as controls for measurement of specific signals. All samples were injected with an association and dissociation flow rate of 3 μL s^−1 and at 25°C. A 1:3 mixture of glycine. HCL (pH 4.2) and 0.5% (v/v) SDS, respectively, was used to regenerate the surface and remove bound proteins from the small molecules enabling the sensor chip to be reused for additional analyte injections.
(§3) The Tris buffer (10 mM Tris-HCl pH 8.0, 100 mM NaCl), without any reducing agent, was used as both analyte and running buffer. Purified recombinant proteins, including Skp1^WT, ΔSkp1^1−140, and any of the desired mutant(s), were in the Tris buffer (10 mM Tris-HCl pH 8.0, 100 mM NaCl). For testing the compound(s), multiple concentrations (0.5 μM, 1 μM, 4 μM and 8 μM) of Skp1^WT or ΔSkp1^1−140 were flowed on the SPRi instrument as analyte to get accurate kinetic parameters. A typical sample injection cycle consists of 300 seconds association phase with the analyte solution and 400 seconds dissociation phase with running buffer at 3 μL s^−1 flow rate. Other purified proteins such as mutant forms of Skp1 were tested to confirm binding pocket specificity. The highest concentration tested for each protein was 8 μM. For data analysis, we choose two software packages, ORIGIN Lab and Data Analysis Module (DAM) of Plexera. All data from SPRi reported here are after subtraction of the background intensity/signal by DAM software. In short, the entire concentration of analyte was fitted with a 1:1 Langmuir interaction integrated rate equation to obtain the kinetic constants.

[2] = biological target: T2, Skp1 (F101W_V123T) (Homo sapiens, UniProt P63208, F101W/V123T); test: SPRi assay, Skp1 mutant; format: binding
T2 construct: His6; made in house; host or cells: Escherichia coli BL21 (DE3)
Protocol: as §1, §2, §3

[3] = biological target: T3, Skp1 (F101A) (Homo sapiens, UniProt P63208, F101A); test: SPRi assay, Skp1 mutant; format: binding
T3 construct: His6; made in house; host or cells: Escherichia coli BL21 (DE3)
Protocol: as §1, §2, §3

[4] = biological target: T4, Skp1 (F139D) (Homo sapiens, UniProt P63208, F139D); test: SPRi assay, Skp1 mutant; format: binding
T4 construct: His6; made in house; host or cells: Escherichia coli BL21 (DE3)
Protocol: as §1, §2, §3

[5] = biological target: T5, Skp1 (Q97A) (Homo sapiens, UniProt P63208, Q97A); test: SPRi assay, Skp1 mutant; format: binding
T5 construct: His6; made in house; host or cells: Escherichia coli BL21 (DE3)
Protocol: as §1, §2, §3

[6] = biological target: T6, Skp1^F139A (Homo sapiens, UniProt P63208, F139A); test: SPRi assay, Skp1 mutant; format: binding
T6 construct: His6; made in house; host or cells: Escherichia coli BL21 (DE3)
Protocol: as §1, §2, §3

[7] = biological target: T7, Skp1 interaction with Skp2 (Homo sapiens, UniProt P63208); test: Cell-based FRET assay in HEK293 cells; details: 4 hrs, increasing concentrations
T7 construct: host or cells: HEK293

[8] = biological target: T8, ΔSkp1^1−140 (Homo sapiens, UniProt P63208); test: LC-MS/MS analysis of in vitro binding; details: ΔSkp1^1−140, overnight incubation
T8 construct: pETDuet-Skp1(1-140); His6; made in house; host or cells: Escherichia coli BL21 (DE3)

[9] = tested on: panel of cell lines derived from hematologic and solid tumors; test: Cell viability, panel of cell lines; format: cell-based; details: all the lines tested with complete cell killing; read-out: EC50 values across the panel
Protocol: For cell viability, cells were seeded in 384 opaque-walled plates with clear bottoms at 300–500 cells per well (optimum density for growth) in a total volume of 20 μL of media. The media was according to culture conditions of each individual cell line (mentioned above). After 12 hrs, compounds were added in a total volume of 5 μL of media (two-fold diluted) to each well with final concentrations from 5 nM to 30 μM. The measurements were conducted 48 hrs after seeding of the cells. Then, 25 μL of Cell-Titer GLO reagent (Promega) was added, and luminescence was measured on an EnSpire multimode plate reader (PerkinElmer), according to the manufacturer’s instructions. The estimated in vitro half-maximal inhibitory concentration (EC50) values were calculated using GraphPad Prism® v6.0 (San Diego, CA) software. The cell viability for A549 cells was also performed for 72- and 96-hrs by using the same experimental conditions as described above.

[10] = tested on: A549 cells; test: Flow cytometric analysis of cell cycle; format: cell-based, human; details: 0.5 μM, asynchronized and synchronized A549 cells
Protocol: Both asynchronous and synchronous cells were analyzed by flow cytometry with DNA staining to determine the total amount of DNA. For asynchronous analysis, A549 cells were seeded into six-well plates at a density of 6 × 10^5 cells/well. After 14 to 16 hrs of seeding, the cells were treated with indicated concentrations of Z0933M for 24 hrs. Then, the cells were harvested, washed twice with cold PBS, and fixed in cold 70% ethanol on ice (around 4°C) for 4 hrs. Next, the cells were washed twice with cold PBS, resuspended with cold PBS containing […] RnaseA (Sigma), and incubated for 30 min at 37°C. Then, PBS containing […] propidium iodide (PI) (Sigma) was directly added, the cells were mixed gently, and incubated for 5–10 min at room temperature in the dark. Finally, the cell-cycle phase distribution was analyzed in three different experiments using flow cytometry (BD Biosciences, San Diego, CA, USA). At least 10,000 events/sample were acquired. Assays were conducted three times independently. The data was analyzed by FlowJo V10 software. For synchronous cell cycle analysis, cells were synchronized to G1/S boundary by a double-thymidine blockade ([Liu et al., 2015]), and then exposed to Z0933M for time-dependent or dose-dependent analysis. […] Cell cycle distribution was analyzed by flow cytometry (BD Biosciences, San Diego, CA, USA) and FlowJo V10 software.

[11] = biological target: T9, Skp1^WT (Homo sapiens, UniProt P63208); test: LC-MS/MS analysis of in vitro binding; details: overnight incubation
T9 construct: recombinantly purify intact (Skp1^WT) and truncate (ΔSkp1^1−140; lacking H8-helix) forms of Skp1; His6; made in house; host or cells: Escherichia coli BL21 (DE3)

[12] = tested on: H358 (p53 null) cells; test: Flow cytometric analysis of apoptosis (annexin V/PI); format: cell-based; details: 10 μM dose

T1 sequence (P63208 whole entry V123D): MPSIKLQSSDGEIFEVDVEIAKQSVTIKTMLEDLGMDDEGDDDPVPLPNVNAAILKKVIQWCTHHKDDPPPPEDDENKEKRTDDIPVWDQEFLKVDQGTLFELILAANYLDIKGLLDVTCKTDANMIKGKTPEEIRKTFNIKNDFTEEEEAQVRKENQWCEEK
T9 sequence (P63208 whole entry, the tested form may be a part): as the sequence (P63208 whole entry V123D) above, with D123V counted along it
T7 sequence (P63208 whole entry): as the sequence (P63208 whole entry V123D) above, with D123V counted along it
T8 sequence (P63208 1-140, stated change not applied): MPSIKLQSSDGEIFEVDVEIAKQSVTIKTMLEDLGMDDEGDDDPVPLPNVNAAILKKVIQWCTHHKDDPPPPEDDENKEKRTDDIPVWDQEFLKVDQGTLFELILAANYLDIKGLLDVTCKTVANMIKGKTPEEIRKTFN
T3 sequence (P63208 whole entry F101A): as the sequence (P63208 whole entry V123D) above, with F101A, D123V counted along it
T6 sequence (P63208 whole entry F139A): as the sequence (P63208 whole entry V123D) above, with D123V, F139A counted along it
T5 sequence (P63208 whole entry Q97A): as the sequence (P63208 whole entry V123D) above, with Q97A, D123V counted along it
T4 sequence (P63208 whole entry F139D): as the sequence (P63208 whole entry V123D) above, with D123V, F139D counted along it
T2 sequence (P63208 whole entry F101W/V123T): as the sequence (P63208 whole entry V123D) above, with F101W, D123T counted along it

SMILES: Nc1ccc(-c2nc3ccccc3c3[nH]c4ccccc4c23)cc1 [Z0933M]
- Kd [1]: 1270 ± 95.5 nM
- Kd [2]: 336 ± 36.8 nM
- Kd [3]: 374 ± 45.6 nM
- Kd [4]: 1140 ± 95.5 nM
- Kd [5]: 477 ± 4.95 nM
- Kd [6]: 455 ± 47.7 nM
- inhibition of Skp1-Skp2 interaction (FRET ratio) [7]: significant inhibition
- binding by LC-MS/MS [8]: robust binding
- EC50 [9]: 250 to 4000 nM
- cell cycle effect [10]: complete G2/M arrest
- binding by LC-MS/MS [11]: robust binding
- induction of apoptosis [12]: could not induce apoptosis
